The test system of data set [1] is HIV-1 IIIB. Type of data set: cell-based.
Description: The inhibitory activity of the constrained peptide described in Example 1 on infection by laboratory-adapted HIV-1 strains was determined as described in Jiang et al. (1991).
For data set [2], the system named is HIV-1 IIIB. In words: Western blot of p24 and p55 after treatment of HIV-1 IIIB infected MT-2 cells. It counts as cell-based. To be noted: anti-p24 mAb, graded concentrations, vs positive untreated control. As for the experimental part: Control cells were uninfected MT-2 or infected and untreated MT-2. Following overnight incubation the culture supernatant was completely removed and replaced with fresh medium. On the fourth day post-infection cells and virus supernatants were harvested. The supernatants were filtered and ultra-centrifuged through a 20% sucrose cushion for 2 hr at 27,000 rpm with a SW28 rotor to concentrate the viral particles. Viral pellets were slowly re-suspended and lysed. Cells were collected and processed for protein extraction. […] Proteins were then visualized by Western Blot and immuno-detected with HIV-1 anti-p24 gag mAb.
Same amounts of viral and cellular proteins were immunodetected with an anti-p24 mAb.

Another data set concerns HIV-IIIB. As to the kind of experiment: Viral re-infection assay: infectivity of virions released by treated HIV-1 infected MT-2 cells. Type of data set: cell-based. On the procedure:
The infectivity potential of the virions released by HIV-1 infected MT-2 cells treated with different concentrations of small stapled peptides. […] Control cells were untreated or treated with 1 ug/ml of AMD3100 (CXCR-4 receptor inhibitor). Following overnight incubation the medium was completely removed and replaced with fresh medium. On the fourth day post-infection the supernatants were collected. One aliquot of each sample was mixed 1:1 with a solution of 5% Triton X-100 for p24 quantification, and stored at 4° C., another aliquot was immediately frozen at −80° C. and used to compare the infectivity of the viral particles released by treated cells to the viral particles released by untreated cells. Following p24 quantification by sandwich-ELISA MT-2 cells were infected with viral samples normalized for the p24 content to calculate the TCID50. Following overnight incubation ¾ of the medium containing the inoculum was replaced with fresh medium. On the fourth day post infection supernatants were collected for p24 quantification and the TCID50 was calculated by the Spearman-Karber statistical method.
Therefore, to infect MT-2 cells we used the maximum quantities of supernatants possible.

The test system of data set [3] is HIV-1 gag-mStrawberry fusion protein. In words: Direct colocalization with gag by confocal microscopy. Type of data set: cell-based. The note with it: 293T cells transfected with pEF6A-gag-mStrawberry; near the plasma membrane. On the procedure:
A direct colocalization study was performed by transfecting 293T cells with pEF6A-gag-mStrawberry for 4 hr and then washing cells once with PBS. A serum-free or serum-containing medium containing FITC-conjugated peptide was added for another 20 hr culture. After three washes, the cells were examined and imaged under a Zeiss LSM510 laser scanning confocal microscope.

Data set [4] in a line: Circular dichroism, secondary structure in solution. It counts as physicochemical. To be noted: 25° C., 1×PBS, 1-20% acetonitrile, 100 μM peptide. As for the experimental part: We used circular dichroism (CD) to characterize the secondary structure of NYAD-1 and CAI in the uncomplexed state in solution. CD spectra were obtained on a Jasco J-715 Spectropolarimeter (Jasco Inc.) at 20° C. using the standard measurement parameters in Tris-HCl buffer (20 mM Tris, pH 8.0) in the presence of 1-15% (v/v) acetonitrile at a final concentration of 125-500 μM. In all the samples, the final concentrations of peptides and salt were always the same, and the spectra were corrected by subtracting the CD spectra of the appropriate reference solvent. Percent α-helix was calculated from molar ellipticity value at 222 nm.
The CD spectra were measured at 25° C. in 1×PBS in the presence of 1-20% (v/v) acetonitrile at a final concentration of peptide of 100 μM.
We used CD spectroscopy to determine the secondary structure characteristics of the stapled peptide NYAD-36. The corresponding linear peptide, NYAD-41, was used as control.
For orientation: CD spectra are sensitive to the conformation of chiral molecules.

Where a SMILES comes first, the peptide text is derived from it. Bridges are numbered along the chain shown (N, C = ends). [ ]: non-standard residue; d: D form. The star is where a group is joined. FITC = O=C1OC2(c3ccc(O)cc3Oc3cc(O)ccc32)c2ccc(NC(=S)*)cc21; R8 = C=CCCCCCC[C@@](C)(N)C(=O)O; S5 = C=CCCC[C@](C)(N)C(=O)O; βAla = NCCC(=O)O

Take `CC[C@H](C)[C@H](N)C(=O)N[C@@H](CO)C(=O)N[C@@H](Cc1ccccc1)C(=O)N[C@@]1(C)CCC/C=C\CCC[C@@](C)(C(=O)N[C@@H](Cc2ccc(O)cc2)C(=O)N[C@@H](Cc2ccc(O)cc2)C(=O)NCC(=O)N[C@@H](CCCNC(=N)N)C(N)=O)NC(=O)[C@H](CC(C)C)NC(=O)[C@H](CC(C)C)NC(=O)[C@H](CCC(=O)O)NC1=O` [NYAD-15] (H-ISF[S5]ELL[S5]YYGR-NH2; staple (Z) 4-8; N-terminus and C-terminus assumed): in the data set on HIV-1 IIIB [1], the concentration for half-maximal inhibition (IC50) – broadly, the concentration at which inhibition is half-maximal – worked out at 4.86 ± 1.55 µM. Besides, in the data set on HIV-1 IIIB [2], the “p24 and p55 levels in the cellular preparation” value was “dose-dependent decrease”; the “p24 and p55 levels in the viral preparation (viral lysates)” value (“p24 and p55 levels … (viral lysates)” for short) is “dose-dependent decrease”.
`CC[C@H](C)[C@H](N)C(=O)N[C@@H](CO)C(=O)N[C@@H](Cc1ccccc1)C(=O)N[C@]1(C)CCCCCC/C=C\CCC[C@@](C)(C(=O)N[C@@H](CCCNC(=N)N)C(N)=O)NC(=O)[C@H](Cc2ccc(O)cc2)NC(=O)[C@H](Cc2ccc(O)cc2)NC(=O)[C@H](CCC(N)=O)NC(=O)[C@H](CC(C)C)NC(=O)[C@H](Cc2c[nH]c3ccccc23)NC(=O)[C@H](CCC(=O)O)NC1=O` [NYAD-33] (H-ISF[R8]EWLQYY[S5]R-NH2; staple (Z) 4-11; N-terminus and C-terminus assumed) had an IC50 in the data set with HIV-1 IIIB [1] of 3.37 ± 0.06 µM. Further, the “viral infectivity of particles released by treated cells” value (shortened to “viral infectivity of particles released”) in the data set with HIV-IIIB (7 μM) and in the data set on HIV-IIIB (14 μM) was “very little to no viral infectivity” in each case. In the data set on HIV-IIIB (about 7 μM), the “infectivity respect to the control” value was determined as 25%.
Consider `c1cc(CN2CCCNCCNCCCNCC2)ccc1CN1CCCNCCNCCCNCC1` [AMD3100, reference compound], for which the “viral infectivity of particles released” value in the data set with HIV-IIIB (1 ug/ml) is on record as “very little to no viral infectivity”.
Compound `CC[C@H](C)[C@H](N)C(=O)N[C@H](C(=O)N[C@@H](Cc1ccccc1)C(=O)N[C@@]1(C)CCC/C=C\CCC[C@@](C)(C(=O)N[C@@H](Cc2ccc(O)cc2)C(=O)N[C@@H](Cc2ccc(O)cc2)C(=O)NCC(=O)N[C@@H](CCC(=O)O)C(=O)N[C@@H](CCCCN)C(N)=O)NC(=O)[C@H](CC(C)C)NC(=O)[C@H]([C@@H](C)CC)NC(=O)[C@H](CC(=O)O)NC1=O)[C@@H](C)O` [NYAD-23] (H-ITF[S5]DIL[S5]YYGEK-NH2; staple (Z) 4-8; N-terminus and C-terminus assumed) showed an IC50 in the data set on HIV-1 IIIB [1] of 9.1 ± 0.74 µM. In the data set with HIV-1 IIIB [2], the “p24 and p55 levels in the cellular preparation” value is recorded as “dose-dependent decrease”; the “p24 and p55 levels … (viral lysates)” value was “dose-dependent decrease”.
Turning to `CC[C@H](C)[C@H](N)C(=O)N[C@@H](CO)C(=O)N[C@@H](Cc1ccccc1)C(=O)N[C@@]1(C)CCC/C=C\CCC[C@@](C)(C(=O)N[C@@H](Cc2ccc(O)cc2)C(=O)N[C@@H](Cc2ccc(O)cc2)C(=O)NCC(=O)N[C@@H](CCC(=O)O)C(=O)N[C@@H](CO)C(=O)NCC(=O)N[C@@H](CO)C(N)=O)NC(=O)[C@H](CC(C)C)NC(=O)[C@H](CC(C)C)NC(=O)[C@H](CCC(=O)O)NC1=O` [NYAD-35] (H-ISF[S5]ELL[S5]YYGESGS-NH2; staple (Z) 4-8; N-terminus and C-terminus assumed), the IC50 in the data set with HIV-1 IIIB [1] worked out at 4.51 ± 0.14 µM.
In turn, `CC[C@H](C)[C@H](N)C(=O)N[C@@H](CO)C(=O)N[C@@H](Cc1ccccc1)C(=O)N[C@@]1(C)CCC/C=C\CCC[C@@](C)(C(=O)N[C@@H](Cc2ccc(O)cc2)C(=O)N[C@@H](Cc2ccc(O)cc2)C(=O)NCC(=O)N[C@@H](CCCNC(=N)N)C(=O)N[C@@H](CO)C(=O)NCC(=O)N[C@@H](CO)C(N)=O)NC(=O)[C@H](CC(C)C)NC(=O)[C@H](CC(C)C)NC(=O)[C@H](CCC(=O)O)NC1=O` [NYAD-34] (H-ISF[S5]ELL[S5]YYGRSGS-NH2; staple (Z) 4-8; N-terminus and C-terminus assumed) yielded an IC50 in the data set on HIV-1 IIIB [1] of 12.7 ± 0.9 µM.
For `CC[C@H](C)[C@H](N)C(=O)N[C@H](C(=O)N[C@@H](Cc1ccccc1)C(=O)N[C@@]1(C)CCC/C=C\CCC[C@@](C)(C(=O)N[C@@H](Cc2ccc(O)cc2)C(=O)N[C@@H](Cc2ccc(O)cc2)C(=O)NCC(=O)N[C@@H](CCCNC(=N)N)C(N)=O)NC(=O)[C@H](CC(C)C)NC(=O)[C@H](Cc2c[nH]c3ccccc23)NC(=O)[C@H](CC(=O)O)NC1=O)[C@@H](C)O` [NYAD-31] (H-ITF[S5]DWL[S5]YYGR-NH2; staple (Z) 4-8; N-terminus and C-terminus assumed), in the data set with HIV-1 IIIB [1], the IC50 is 13.5 ± 1.4 µM.
Regarding “FITC-conjugated NYAD-1: NYAD-1 N-terminally derivatized with β-Ala and FITC ({FITC-βAla}-ITF[S5]DLL[S5]YYGP-NH2; staple 4-8; also: X4, X8 also described as (S)-2-(2'-pentenyl)alanine)”, the “colocalization with gag-mStrawberry” value in data set [3] is on record as “significant fraction colocalized”.
In turn, `CC[C@H](C)[C@H](N)C(=O)N[C@@H](CO)C(=O)N[C@@H](Cc1ccccc1)C(=O)N[C@@]1(C)CCC/C=C\CCC[C@@](C)(C(=O)N[C@@H](Cc2ccc(O)cc2)C(=O)N[C@@H](Cc2ccc(O)cc2)C(=O)NCC(=O)N[C@@H](CCC(=O)O)C(=O)N[C@@H](CO)C(=O)NCC(=O)N[C@@H](CO)C(N)=O)NC(=O)[C@H](CC(C)C)NC(=O)[C@H]([C@@H](C)CC)NC(=O)[C@H](CCC(=O)O)NC1=O` [NYAD-37] (H-ISF[S5]EIL[S5]YYGESGS-NH2; staple (Z) 4-8; N-terminus and C-terminus assumed) came in with a concentration for half-maximal inhibition (IC50) with HIV-1 IIIB [1] of 8 ± 0.36 µM. For the same compound, in the data set with HIV-IIIB (15 μM), the “viral infectivity of particles released” value is given as “very little to no viral infectivity”. In addition, the “viral infectivity of particles released” value in the data set on HIV-IIIB (30 μM) was “very little to no viral infectivity”. Further, in the data set with HIV-1 IIIB [2], the “p24 and p55 levels in the cellular preparation” value is on record as “dose-dependent decrease”; the “p24 and p55 levels … (viral lysates)” value is “dose-dependent decrease”.
On to `CC[C@H](C)[C@H](N)C(=O)N[C@@H](CO)C(=O)N[C@@H](Cc1ccccc1)C(=O)N[C@@]1(C)CCC/C=C\CCC[C@@](C)(C(=O)N[C@@H](Cc2ccc(O)cc2)C(=O)N[C@@H](Cc2ccc(O)cc2)C(=O)NCC(=O)N[C@@H](CCC(=O)O)C(=O)N[C@@H](CCCCN)C(N)=O)NC(=O)[C@H](CC(C)C)NC(=O)[C@H](CC(C)C)NC(=O)[C@H](CCC(=O)O)NC1=O` [NYAD-24] (H-ISF[S5]ELL[S5]YYGEK-NH2; staple (Z) 4-8; N-terminus and C-terminus assumed), for which 13.8 ± 3.57 µM corresponded to half-maximal inhibition with HIV-1 IIIB [1] (IC50).
As for “NYAD-41: SEQ ID NO:20, linear peptide corresponding to NYAD-36, used as control (ISFDELLDYYGESGS; Linear peptide NYAD-41)”, the “secondary structure by CD” value in data set [4] is “random nature”.

The record behind these values is patent US8937154B2, “Stabilized therapeutic small helical antiviral peptides” (priority 2006, dated 2015).
